Consider three compounds from BindingDB's records for doi:10.1016/j.bmcl.2005.03.076 (Janssen-Cilag, 2005).

The Ki is a measure of affinity in units of concentration, obtained from inhibition or displacement. Low readings indicate tighter binding, high ones weaker binding.

This test concerns the target Sodium-dependent noradrenaline transporter (Rattus norvegicus). Nature of the test: In vitro binding affinity against norepinephrine transporter using [3H]-nisoxetine as radioligand.
Compound `Brc1ccc2c(c1)[C@H]1O[C@H](Cn3oc4ccc(CN5CCOCC5)cc43)C[C@H]1c1ccccc1O2` [8-((2S,3aS,12bS)-11-Bromo-2,3,3a,12b-tetrahydro-1,8-dioxa-dibenzo[e,h]azulen-2-ylmethyl)-3-morpholin-4-ylmethyl-7-oxa-8-aza-bicyclo[4.2.0]octa-1(6),2,4-triene] returned a Ki of 3110 nM. With `Nc1ccc2on(C[C@@H]3C[C@H]4c5ccccc5Oc5ccc(Br)cc5[C@H]4O3)c2c1` [8-((2S,3aS,12bS)-11-Bromo-2,3,3a,12b-tetrahydro-1,8-dioxa-dibenzo[e,h]azulen-2-ylmethyl)-7-oxa-8-aza-bicyclo[4.2.0]octa-1(6),2,4-trien-3-ylamine], the affinity corresponds to a Ki of 620 nM. In the case of `CN(C)c1ccc2on(C[C@@H]3C[C@H]4c5ccccc5Oc5ccc(Br)cc5[C@H]4O3)c2c1` [[8-((2S,3aS,12bS)-11-Bromo-2,3,3a,12b-tetrahydro-1,8-dioxa-dibenzo[e,h]azulen-2-ylmethyl)-7-oxa-8-aza-bicyclo[4.2.0]octa-1(6),2,4-trien-3-yl]-dimethyl-amine] it was 2250 nM.
